6 molecules from PMC10085697 (2023) can be followed below.

Assay [1] deals with Mango IV (RNA, aptamer) GCACGUACCGAGGGAGUGGUGAGGAUGAGGCGAGUACGUGC
Description: fluorescence light-up titration (Monolith NT.115). To be noted: 140 mM KCl; 10 mM Tris-HCl pH 7.5, 0.05% Tween-20, 25 °C, 10 nM dye; rough evaluation.

For assay [2], the system named is Control G4 RNA (utr-z) (RNA, G4) GGCGGCGGCAGUGGCGGCGG
The assay can be described thus: fluorescence light-up. To be noted: 140 mM KCl; 10 mM Tris-HCl pH 7.5, 5 μM dye, 5 μM RNA.

Assay [3] concerns ds_Mango II (RNA, aptamer) GGUGUGGGGCACGUACGAAGGAGAGGAGAGGAAGAGGAGAGUACGUGCCCCACA
The assay can be described thus: fluorescence light-up. To be noted: 140 mM KCl.

Assay [4] concerns Broccoli (RNA, aptamer) GGGAGACGGUCGGGUCCAGAUAUUCGUAUCUGUCGAGUAGAGUGUGGGCUC
Description: fluorescence titration. To be noted: affinity called insignificant compared to that of Mango II; highest concentration not stated.

Assay [5] concerns Mango II (RNA, aptamer) GCACGUACGAAGGAGAGGAGAGGAAGAGGAGAGUACGUGC
The assay can be described thus: fluorescence light-up titration (Monolith NT.115). To be noted: 140 mM KCl; 10 mM Tris-HCl pH 7.5, 0.05% Tween-20, 25 °C, 10 nM dye; rough evaluation.

For assay [6] the test system is unchanged. The assay can be described thus: absorbance shift and fluorescence light-up. To be noted: 140 mM KCl; 10 mM Tris-HCl pH 7.5, 5 μM dye, 5 μM RNA.
Assay [7] concerns Mango IV (RNA, aptamer) GCACGUACCGAGGGAGUGGUGAGGAUGAGGCGAGUACGUGC
Description: absorbance shift and fluorescence light-up. To be noted: 140 mM KCl; 10 mM Tris-HCl pH 7.5, 5 μM dye, 5 μM RNA.

Assay [8] deals with Broccoli (RNA, aptamer) GGGAGACGGUCGGGUCCAGAUAUUCGUAUCUGUCGAGUAGAGUGUGGGCUC
The assay can be described thus: absorbance and fluorescence titration. To be noted: 140 mM KCl; 10 mM Tris-HCl pH 7.5.

As to `CN(C)c1ccc(/C=C/c2sc3ccccc3[n+]2Cc2cn(CCOCCOCCOCCNC(=O)CCCC[C@@H]3SC[C@@H]4NC(=O)N[C@@H]43)nn2)cc1`, the results for the KD in assay [1] and in assay [5] were 0.6 ± 0.4 µM and 0.08 ± 0.06 µM, respectively. The binding result in assay [2] is “weak”; in assay [3] (20 mM sodium phosphate pH 7.2, 0.05% Tween-20, 1 μM) it was “yes”; in assay [4], “no”.

In the case of `CC1=CC(C)(C)N(C)c2ccc(/C=C/c3sc4ccccc4[n+]3Cc3cn(CCOCCOCCOCCNC(=O)CCCC[C@@H]4SC[C@@H]5NC(=O)N[C@@H]54)nn3)cc21`, the binding entry in assay [6] and in assay [7] was “yes” in each case.

Take `CN1C=CC(=Cc2sc3ccccc3[n+]2CC(=O)NCCOCCOCCOCCNC(=O)CCCC[C@@H]2SC[C@@H]3NC(=O)N[C@@H]32)c2ccccc21`: the binding entry in assay [6], in assay [2], in assay [7] and in assay [3] (buffer stated for 4b only) was “yes” in each case.

On to `CC1=N/C(=C\c2cc(F)c(O)c(F)c2)C(=O)N1C`, for which the binding result in assay [8] is given as “yes”.

As for `O=C(CCCC[C@@H]1SC[C@@H]2NC(=O)N[C@@H]21)NCCOCCOCCOCCn1cc(C[n+]2c(/C=C/c3cc4c5c(c3)CCCN5CCC4)sc3ccccc32)nn1`, the binding entry in assay [6] and in assay [7] was “yes” throughout.

Consider `CN1C=CC(=Cc2sc3ccccc3[n+]2Cc2cn(CCOCCOCCOCCNC(=O)CCCC[C@@H]3SC[C@@H]4NC(=O)N[C@@H]43)nn2)c2ccccc21`, for which the binding result in assay [6], in assay [2] and in assay [7] was “yes” throughout.
